Marks after values point to notes of the source that are not given here.
Conditions: pH 2.3

Row | SMILES | Log P
1 | CCONC(=O)C(C#N)=C(NC(C)C(C)C)c1cccnc1Cl (stereo not drawn) [Compound 1454] | 2.44^[c]; 2.44^[b]
2 | CCOC(=O)C(C#N)=C(NC(C)C(C)C)c1cccnc1-c1cc(Cl)cc(Cl)c1 (stereo not drawn) [Compound 975] | 4.68
3 | CCOC(=O)C(C#N)=C(NC(C)C(C)C)c1cccnc1Cl (stereo not drawn) [Compound 984] | 3.22

Same assay, conditions: pH 2.7

Row | Log P | SMILES
4 | 3.61^[a] | CCOC(=O)C(C#N)=C(NC(C)C1CC1)c1ccnc(Cl)c1Cl (racemic) [Compound 902]
5 | 1.91^[a] | CCOC(=O)C(C#N)=C(NCc1ccc(C)c(C)n1)c1cccnc1Cl [Compound 1526]
6 | 3.87^[a] | CCOC(=O)C(C#N)=C(NC(CC)c1cccc(Cl)c1)c1cn(C)nc1C(F)F (racemic) [Compound 558]
7 | 2.61^[a] | CCOC(=O)C(C#N)=C(Nc1cccc2scnc12)c1cccnc1Cl [Compound 1553]
8 | 2.89^[a] | COC(=O)C(C#N)=C(NC(C)c1ccc(F)cc1)c1cccnc1Cl (stereo not drawn) [Compound 397]
9 | 0.86^[a] | CCN(CC)CC(C)NC(=C(C#N)C(=O)OC)c1cccnc1Cl (stereo not drawn) [Compound 622]
10 | 2.65^[a] | COC(=O)C(C#N)=C(NC(C)c1ccc(OC)cc1)c1cccnc1Cl (stereo not drawn) [Compound 408]
11 | 3.6^[a] | CCNC(=O)C(C#N)=C(NC(C)C(C)C)c1ccnc(Br)c1Cl (stereo not drawn) [Compound 1210]
12 | 4.43^[a] | CCOC(=O)C(C#N)=C(NC(C)C1CC1)c1cc(Cl)sc1Cl (stereo not drawn) [Compound 1587]
13 | 2.08^[a] | CCOC(=O)C(C#N)=C(NC(C)C(=O)NC)c1ccnc(Cl)c1Cl (stereo not drawn) [Compound 730]
14 | 4.41^[a] | CCOC(=O)C(C#N)=C(NC(C)C(C)(C)C)c1sccc1Br (racemic) [Compound 921]
15 | 2.76^[a] | CCOCC(CC)NC(=C(C#N)C(=O)OC)c1cccnc1Cl (stereo not drawn) [Compound 625]
16 | 1.41^[a] | CCOC(=O)C(C#N)=C(NC(C)CN(C)C)c1nsc(Cl)c1Cl (racemic) [Compound 588]
17 | 2.07^[a] | CCOC(=O)C(C#N)=C(NC(C)C(=O)NC)c1sccc1Br (stereo not drawn) [Compound 612]
18 | 2.13^[a] | CCOC(=O)C(C#N)=C(NC(C)C(N)=O)c1nc(SC)ncc1Br (stereo not drawn) [Compound 709]
19 | 2.7^[a] | CCNC(=O)C(C#N)=C(NC(C)c1ccccn1)c1ccnc(C)c1Cl (racemic) [Compound 1277]
20 | 4.34^[a] | CCOC(=O)C(C#N)=C(NC(C)C(C)C)c1ccnc(-c2ccccc2)c1Cl (stereo not drawn) [Compound 1403]
21 | 3.94^[a] | CCOC(=O)C(C#N)=C(NC(C)COc1ccc(C)cc1)c1cccnc1Cl (stereo not drawn) [Compound 1165]
22 | 4.01^[a] | CCOC(=O)C(C#N)=C(NC(C)c1nc(C)c(C)s1)c1nsc(Cl)c1Cl (racemic) [Compound 53]
23 | 2.58^[a] | CCOC(=O)C(C#N)=C(NC(C)c1ccccn1)c1cn(C)nc1C(C)C (stereo not drawn) [Compound 1207]
24 | 3.33^[a] | CCOC(=O)C(C#N)=C(NC(C)C(=O)OCC)c1sccc1Br (racemic) [Compound 672]

More lines, now with the values behind:

Row | SMILES | Log P
25 | CCOC(=O)C(C#N)=C(NC1CCC1)c1cccnc1Cl [Compound 1186] | 2.92^[a]
26 | CCOC(=O)C(C#N)=C(NC(c1cc2ccccc2s1)C(F)(F)F)c1cn(C)nc1C(F)F (racemic) [Compound 48] | 4.1^[a]
27 | CCOC(=O)C(C#N)=C(Nc1ccc(C#N)cc1)c1cn(C)nc1C(F)F [Compound 1217] | 2.64^[a]
28 | CCOC(=O)C(C#N)=C(Nc1cccc2nsnc12)c1cccnc1Cl [Compound 1556] | 3.17^[a]
29 | CCOC(=O)C(C#N)=C(NC(C)c1ccc(C)cc1)c1sccc1Br (mixture of isomers) [Compound 447] | 4.49^[a]
30 | CCC1CCCC(C)C1NC(=C(C#N)C(=O)OC)c1cccnc1Cl (stereo not drawn) [Compound 1060] | 3.99^[a]
31 | CCOC(=O)C(C#N)=C(NC1CCC1C)c1cccnc1Cl (stereo not drawn) [Compound 1065] | 3.37^[a]
32 | CCOC(=O)C(C#N)=C(NC(C)c1ccc(Cl)cc1)c1c(C)nn(C)c1F (stereo not drawn) [Compound 352] | 3.62^[a]
33 | CCOC(=O)C(C#N)=C(Nc1ccc2ncsc2c1)c1sc(C)nc1C(F)(F)F [Compound 479] | 2.98^[a]
34 | CCOC(=O)C(C#N)=C(NC(C)c1ccccn1)c1ccncc1Cl (racemic) [Compound 260] | 2.54^[a]
35 | CCOC(=O)C(C#N)=C(NC(C)c1cccc(OC)n1)c1cccnc1Cl (stereo not drawn) [Compound 1438] | 3.5^[a]
36 | CCOC(=O)C(C#N)=C(NC(C)c1cscn1)c1ccncc1Br (mixture of isomers) [Compound 298] | 2.4^[a]
37 | CCOC(=O)C(C#N)=C(NC1(c2c(F)cccc2F)CC1)c1cn(C)cc1C(F)(F)F [Compound 547] | 3.85^[a]
38 | CC(NC(=C(C#N)C(=O)NCCF)c1cccnc1Cl)c1nccs1 (racemic) [Compound 1563] | 2^[a]
39 | CCOC(=O)C(C#N)=C(NC(C)COC)c1sccc1C(F)(F)F (racemic) [Compound 655] | 3.31^[a]
40 | CCCCCC(C)NC(=C(C#N)C(=O)OCC)c1cn(C)nc1C(F)F (racemic) [Compound 855] | 3.94^[a]
41 | COC(=O)C(C#N)=C(NC1(c2ccc(Cl)cc2)CC1)c1cccnc1Cl [Compound 384] | 3.19^[a]
42 | CCOC(=O)C(C#N)=C(NC(C(=O)OC)C(C)C)c1sccc1C(F)(F)F (stereo not drawn) [Compound 659] | 3.62^[a]
43 | CCOC(=O)C(C#N)=C(NC(C)C1CC1)c1sccc1Br (stereo not drawn) [Compound 885] | 3.76^[a]
44 | CC(NC(=C(C#N)C(=O)NC1CC1)c1cn(C)nc1C(F)F)c1ccccn1 (racemic) [Compound 1280] | 1.84^[a]
45 | CCOC(=O)C(C#N)=C(NC(C)Cc1c[nH]c2ccccc12)c1conc1C (stereo not drawn) [Compound 78] | 3.15^[a]
46 | CCOC(=O)C(C#N)=C(NC(C)C(C)C)c1cn(C)nc1C(F)(F)F (stereo not drawn) [Compound 939] | 3.64^[a]
47 | CC(NC(=C(C#N)C(=O)N1CCCO1)c1cccnc1Cl)c1nccs1 (stereo not drawn) [Compound 1599] | 1.9^[a]
48 | COC(=O)C(C#N)=C(NC(C)CCc1ccccc1)c1sc(C)nc1C(F)(F)F (mixture of isomers) [Compound 441] | 4.01^[a]
49 | CCOC(=O)C(C#N)=C(NC(C)C(C)(C)C)c1sc(C)nc1C(F)(F)F (racemic) [Compound 922] | 4.21^[a]
50 | CCOC(=O)C(C#N)=C(NC(C)c1cc(Cl)cc(Cl)n1)c1cccnc1Cl (stereo not drawn) [Compound 1639] | 3.7^[a]

Row | SMILES | Log P
51 | COC(=O)C(C#N)=C(NCc1ccccn1)c1sc(C)nc1C(F)(F)F [Compound 134] | 2.37^[a]
52 | CCOC(=O)C(C#N)=C(NC(C)c1ccc(Cl)cc1)c1ccncc1Cl (racemic) [Compound 541] | 3.78^[a]
53 | CC(C)C(C)NC(=C(C#N)C(=O)N1CCSCC1)c1cccnc1Cl (stereo not drawn) [Compound 1507] | 3.27^[a]
54 | CCOC(=O)C(C#N)=C(NC(C)c1ccccn1)c1ncc(C(F)(F)F)cc1Cl (racemic) [Compound 43] | 3.44^[a]
55 | CCOC(=O)C(C#N)=C(NC(C)C(=O)OCc1ccccc1)c1cccnc1Cl (stereo not drawn) [Compound 1539] | 3.53^[a]
56 | CCC(C)NC(=C(C#N)C(=O)OC)c1sc(C)nc1C(F)(F)F (stereo not drawn) [Compound 831] | 3.23^[a]
57 | CCOC(=O)C(C#N)=C(NC(C)c1cccc2ccccc12)c1ncc(Cl)cc1Cl (stereo not drawn) [Compound 2] | 4.65^[a]
58 | CCOC(=O)C(C#N)=C(NC(C)Cc1c[nH]c2ccccc12)c1sccc1Br (stereo not drawn) [Compound 91] | 3.8^[a]
59 | C=CCNC(=C(C#N)C(=O)OCC)c1cn(C)nc1C(F)F [Compound 1127] | 2.35^[a]
60 | COC(=O)C(C#N)=C(NC(C)c1nccs1)c1cn(C)nc1C(F)F (racemic) [Compound 61] | 2.13^[a]
61 | CCOC(=O)C(C#N)=C(NC(C)C(=O)CC)c1cccnc1Cl (racemic) [Compound 1270] | 2.64^[a]
62 | CCOC(=O)C(C#N)=C(NC(C)C(C)C)c1cn(C)nc1C(F)F (stereo not drawn) [Compound 933] | 3.13^[a]
63 | CCOC(=O)C(C#N)=C(NC(C)C(=O)NC)c1ccnc(Cl)c1F (stereo not drawn) [Compound 1324] | 2.15^[a]
64 | CCOC(=O)C(C#N)=C(Nc1ccccc1SC)c1cn(C)nc1C(F)F [Compound 349] | 3.13^[a]
65 | CC(C)CNC(=O)C(C#N)=C(NC(C)C(C)C)c1cccnc1Cl (stereo not drawn) [Compound 1494] | 3.74^[a]
66 | COC(=O)C(C#N)=C(NC(C1CC1)C1CC1)c1cccnc1Cl [Compound 765] | 2.85^[a]
67 | CCOC(=O)C(C#N)=C(Nc1ccc(SC)cc1)c1sccc1C(F)(F)F [Compound 462] | 4.09^[a]
68 | CCOC(=O)C(C#N)=C(NC(C)(C)c1ccccc1)c1cn(C)nc1C(F)F [Compound 551] | 3.33^[a]
69 | CCOC(=O)C(C#N)=C(NC(CC(C)C)C(F)(F)F)c1cn(C)nc1C(F)F (stereo not drawn) [Compound 1417] | 3.8^[a]
70 | CCOC(=O)C(C#N)=C(NCc1ccccc1SC)c1sccc1C(F)(F)F [Compound 463] | 4.09^[a]
71 | CCOC(=O)C(C#N)=C(NC1CCCCNC1=O)c1cc(C)oc1C (stereo not drawn) [Compound 119] | 2.14^[a]
72 | CCOC(=O)C(C#N)=C(NC(C)COC)c1sccc1Br (racemic) [Compound 671] | 3.17^[a]
73 | CCOC(=O)C(C#N)=C(NC1(C)CCC1)c1cccnc1Cl [Compound 1607] | 3.11^[a]
74 | CCOC(=O)C(C#N)=C(NC(C)c1ccn(C)n1)c1cccnc1Cl (racemic) [Compound 276] | 2.3^[a]
75 | CCOC(=O)C(C#N)=C(NC(C)C(C)C)c1cccnc1Cl (stereo not drawn) [Compound 984] | 3.33

Same assay, conditions: pH 7.5

Row | SMILES | Log P
76 | CC(NC(=C(C#N)C(=O)OCC(F)(F)F)c1cccnc1Cl)c1nccs1 (stereo not drawn) [Compound 30] | 2.67
77 | CCONC(=O)C(C#N)=C(NC(C)C(C)C)c1cccnc1Cl (stereo not drawn) [Compound 1454] | 2.44^[c]; 2.44^[b]
78 | COC(=O)C(C#N)=C(NC(C(N)=O)C(C)C)c1cccnc1Cl (stereo not drawn) [Compound 572] | 1.58
79 | CCOC(=O)C(C#N)=C(NC(C)c1nccs1)c1ccc(C)nc1Cl (stereo not drawn) [Compound 24] | 2.62
80 | COC(=O)C(C#N)=C(NC(C)C1CC1)c1cccnc1Cl (mixture of isomers) [Compound 1307] | 2.58
81 | CCOC(=O)C(C#N)=C(NC(C)CBr)c1cccnc1Cl (stereo not drawn) [Compound 767] | 2.79
82 | CCOC(=O)C(C#N)=C(NC(C)CCCC(C)C)c1cccnc1Cl (mixture of isomers) [Compound 1582] | 4.47
83 | CCOC(=O)C(C#N)=C(NC(C)C(C)C)c1cccnc1-c1cc(Cl)cc(Cl)c1 (stereo not drawn) [Compound 975] | 4.67
84 | CCOC(=O)C(C#N)=C(NC(C)C(C)C)c1cccnc1Cl (stereo not drawn) [Compound 984] | 3.22
